Experimental data from US20240400561A1, “NOVEL SUBSTITUTED SULFONYLUREA COMPOUNDS AS INHIBITORS OF INTERLEUKIN-1 ACTIVITY” (Viva Star Biosciences (Suzhou) Co., Ltd., priority 2021, published 2024).

Target: T1, NLRP3 (Homo sapiens, UniProt Q96P20)
T1 construct: Seed THP-1 cells (5.56*10^5 cells/mL) containing 1.0 ug/mL LPS; endogenous in cells; host or cells: THP-1 cells
Assay: THP-1 cell assay (LPS priming, nigericin), IL1β release by HTRF; called pyroptosis assay, THP IC50
Format: cell-based
Conditions: NLRP3 inhibitory activity; THP-1 cells, 1.0 ug/mL LPS, compound 3 hrs, nigericin 5 uM 1 hr, IL1β in supernatant
Procedure, shortened: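 THP-1 cells were primed with 1.0 ug/mL LPS in serum-free RPMI 1640 alongside compound (10 doses from 5 uM, 1:3) for 3 h at 37° C. Nigericin (final 5 uM) was then added for 1 h. Supernatant IL1β was quantified by HTRF against a standard curve, with IC50 from a four-parameter fit.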

T1 sequence (Q96P20 whole entry): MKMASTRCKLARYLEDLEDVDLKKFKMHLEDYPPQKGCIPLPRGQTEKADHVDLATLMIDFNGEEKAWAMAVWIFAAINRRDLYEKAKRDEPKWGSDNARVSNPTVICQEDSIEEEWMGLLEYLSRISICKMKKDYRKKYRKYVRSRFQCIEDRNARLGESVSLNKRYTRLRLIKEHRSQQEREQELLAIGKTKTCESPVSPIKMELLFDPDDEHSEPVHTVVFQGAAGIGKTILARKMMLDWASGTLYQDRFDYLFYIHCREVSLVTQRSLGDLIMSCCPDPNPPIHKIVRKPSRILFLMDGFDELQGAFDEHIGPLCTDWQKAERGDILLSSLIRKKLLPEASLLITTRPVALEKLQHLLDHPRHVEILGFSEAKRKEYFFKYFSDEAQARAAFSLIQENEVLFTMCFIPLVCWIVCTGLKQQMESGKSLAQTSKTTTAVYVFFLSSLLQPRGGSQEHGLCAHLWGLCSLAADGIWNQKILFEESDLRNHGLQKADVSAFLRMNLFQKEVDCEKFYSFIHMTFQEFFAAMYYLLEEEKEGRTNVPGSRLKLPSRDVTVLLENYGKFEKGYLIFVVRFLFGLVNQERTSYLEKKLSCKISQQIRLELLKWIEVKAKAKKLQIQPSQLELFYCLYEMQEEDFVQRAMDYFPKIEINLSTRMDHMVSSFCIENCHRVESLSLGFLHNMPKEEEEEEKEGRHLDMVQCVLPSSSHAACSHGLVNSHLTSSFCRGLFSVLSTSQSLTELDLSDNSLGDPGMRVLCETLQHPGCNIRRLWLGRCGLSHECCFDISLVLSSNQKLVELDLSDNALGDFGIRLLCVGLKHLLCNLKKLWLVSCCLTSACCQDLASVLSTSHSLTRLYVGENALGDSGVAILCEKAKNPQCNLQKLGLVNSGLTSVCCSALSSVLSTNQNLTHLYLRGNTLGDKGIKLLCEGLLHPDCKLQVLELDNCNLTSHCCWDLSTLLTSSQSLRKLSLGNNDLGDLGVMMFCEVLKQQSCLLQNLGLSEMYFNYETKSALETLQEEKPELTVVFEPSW

Row | SMILES | IC50
1 | Cc1cc2c(c(NC(=O)NS(=O)(=O)c3ccnc(OC4CC4)c3)c1-c1ccn3nccc3c1)CCC2 [Example 33, 2-cyclopropoxy-N-((6-methyl-5-(pyrazolo[1,5-a]pyridin-5-yl)-2,3-dihydro-1H-inden-4-yl)carbamoyl)pyridine-4-sulfonamide] | ≤ 30 nM
2 | CC(C)(O)c1csc(S(=O)(=O)NC(=O)Nc2c(-c3ccn4cnnc4c3)ccc3c2CCC3)c1 [Example 63, N-((5-([1,2,4]triazolo[4,3-a]pyridin-7-yl)-2,3-dihydro-1H-inden-4-yl)carbamoyl)-4-(2-hydroxypropan-2-yl)thiophene-2-sulfonamide] | ≤ 30 nM
3 | O=C(Nc1c(-c2ccn3nccc3c2)ccc2c1CCC2)NS(=O)(=O)c1cnn(CC2CC2)c1 [Example 7, 1-(cyclopropylmethyl)-N-((5-(pyrazolo[1,5-a]pyridin-5-yl)-2,3-dihydro-1H-inden-4-yl)carbamoyl)-1H-pyrazole-4-sulfonamide] | ≤ 30 nM
4 | Cc1cc2c(c(NC(=O)NS(=O)(=O)c3cc(CC4CC4)n(C)n3)c1-c1ccn3nccc3c1)CCC2 [Example 17, 5-(cyclopropylmethyl)-1-methyl-N-((6-methyl-5-(pyrazolo[1,5-a]pyridin-5-yl)-2,3-dihydro-1H-inden-4-yl)carbamoyl)-1H-pyrazole-3-sulfonamide] | ≤ 30 nM
5 | Cc1cc2c(c(NC(=O)NS(=O)(=O)c3ccn(CC4CCC4)n3)c1-c1ccn3nccc3c1)CCC2 [Example 11, 1-(cyclobutylmethyl)-N-((6-methyl-5-(pyrazolo[1,5-a]pyridin-5-yl)-2,3-dihydro-1H-inden-4-yl)carbamoyl)-1H-pyrazole-3-sulfonamide] | ≤ 30 nM
6 | Cc1cc2c(c(NC(=O)NS(=O)(=O)c3ccn(C4CC4)n3)c1-c1ccn3nncc3c1)CCC2 [Example 78, N-((5-([1,2,3]triazolo[1,5-a]pyridin-5-yl)-6-methyl-2,3-dihydro-1H-inden-4-yl)carbamoyl)-1-cyclopropyl-1H-pyrazole-3-sulfonamide] | ≤ 30 nM
7 | O=C(Nc1c(-c2cnc3ccnn3c2)ccc2c1CCC2)NS(=O)(=O)c1cnn(CC2CC2)c1 [Example 22, 1-(cyclopropylmethyl)-N-((5-(pyrazolo[1,5-a]pyrimidin-6-yl)-2,3-dihydro-1H-inden-4-yl)carbamoyl)-1H-pyrazole-4-sulfonamide] | > 2000 nM
8 | Cc1cc2c(c(NC(=O)NS(=O)(=O)c3ccn(C4CC4)n3)c1-c1ccn3nccc3c1)CCC2 [Example 1, 1-cyclopropyl-N-((6-methyl-5-(pyrazolo[1,5-a]pyridin-5-yl)-2,3-dihydro-1H-inden-4-yl)carbamoyl)-1H-pyrazole-3-sulfonamide] | ≤ 30 nM
9 | Cc1cc2c(c(NC(=O)NS(=O)(=O)c3cnn(CC4CC4)c3)c1-c1ccn3nccc3c1)CCC2 [Example 6, 1-(cyclopropylmethyl)-N-((6-methyl-5-(pyrazolo[1,5-a]pyridin-5-yl)-2,3-dihydro-1H-inden-4-yl)carbamoyl)-1H-pyrazole-4-sulfonamide] | ≤ 30 nM
10 | Cc1cc2cc(-c3ccc4c(c3NC(=O)NS(=O)(=O)c3cc(C(C)(C)O)cs3)CCC4)ccn2n1 [Example 74, 4-(2-hydroxypropan-2-yl)-N-((5-(2-methylpyrazolo[1,5-a]pyridin-5-yl)-2,3-dihydro-1H-inden-4-yl)carbamoyl)thiophene-2-sulfonamide] | ≤ 30 nM
11 | O=C(Nc1c2c(cc(F)c1-c1ccn3nccc3c1)CCO2)NS(=O)(=O)c1ccn(C2CC2)n1 [Example 87, 1-cyclopropyl-N-((5-fluoro-6-(pyrazolo[1,5-a]pyridin-5-yl)-2,3-dihydrobenzofuran-7-yl)carbamoyl) 1H-pyrazole-3-sulfonamide] | 300 to 1000 nM
12 | O=C(Nc1c2c(cc(Cl)c1-c1ccn3nccc3c1)CCC2)NS(=O)(=O)c1ccn(C2CC2)n1 [Example 89, N-((6-chloro-5-(pyrazolo[1,5-a]pyridin-5-yl)-2,3-dihydro-1H-inden-4-yl)carbamoyl)-1-cyclopropyl-1H-pyrazole-3-sulfonamide] | ≤ 30 nM
13 | Cc1cc2c(c(NC(=O)NS(=O)(=O)c3cncc(N(C)C4CCC4)c3)c1-c1ccn3nccc3c1)CCC2 [Example 36, 5-(cyclobutyl(methyl)amino)-N-((6-methyl-5-(pyrazolo[1,5-a]pyridin-5-yl)-2,3-dihydro-1H-inden-4-yl)carbamoyl)pyridine-3-sulfonamide] | 30 to 300 nM

The next lines start with the values.

Row | IC50 | SMILES
14 | 30 to 300 nM | Cn1ncc2c(-c3ccc4c(c3NC(=O)NS(=O)(=O)c3cc(C(C)(C)O)cs3)CCC4)ccnc21 [Example 48, 4-(2-hydroxypropan-2-yl)-N-((5-(1-methyl-1H-pyrazolo[3,4-b]pyridin-4-yl)-2,3-dihydro-1H-inden-4-yl)carbamoyl)thiophene-2-sulfonamide]
15 | ≤ 30 nM | Cc1cc2c(c(NC(=O)NS(=O)(=O)c3ccn(C[C@@H](C)O)n3)c1-c1ccn3nccc3c1)CCC2 [Example 79, (R)-1-(2-hydroxypropyl)-N-((6-methyl-5-(pyrazolo[1,5-a]pyridin-5-yl)-2,3-dihydro-1H-inden-4-yl)carbamoyl)-1H-pyrazole-3-sulfonamide]
16 | 30 to 300 nM | CC(C)(O)c1csc(S(=O)(=O)NC(=O)Nc2c(-c3ccnc4c3ccn4C3CC3)ccc3c2CCC3)c1 [Example 49, N-((5-(1-cyclopropyl-1H-pyrrolo[2,3-b]pyridin-4-yl)-2,3-dihydro-1H-inden-4-yl)carbamoyl)-4-(2-hydroxypropan-2-yl)thiophene-2-sulfonamide]
17 | ≤ 30 nM | Cc1cc2c(c(NC(=O)NS(=O)(=O)c3ccn(C[C@H](C)O)n3)c1-c1ccn3nccc3c1)CCC2 [Example 80, (S)-1-(2-hydroxypropyl)-N-((6-methyl-5-(pyrazolo[1,5-a]pyridin-5-yl)-2,3-dihydro-1H-inden-4-yl)carbamoyl)-1H-pyrazole-3-sulfonamide]
18 | 300 to 1000 nM | CC(C)n1ccc(S(=O)(=O)NC(=O)Nc2c(-c3ccnc4c3ccn4C)ccc3c2CCC3)n1 [Example 50, 1-isopropyl-N-((5-(1-methyl-1H-pyrrolo[2,3-b]pyridin-4-yl)-2,3-dihydro-1H-inden-4-yl)carbamoyl)-1H-pyrazole-3-sulfonamide]
19 | 30 to 300 nM | CC(C)(O)c1csc(S(=O)(=O)NC(=O)Nc2c(-c3ccnc4c3ccn4C3COC3)ccc3c2CCC3)c1 [Example 59, 4-(2-hydroxypropan-2-yl)-N-((5-(1-(oxetan-3-yl)-1H-pyrrolo[2,3-b]pyridin-4-yl)-2,3-dihydro-1H-inden-4-yl)carbamoyl)thiophene-2-sulfonamide]
20 | ≤ 30 nM | CO[C@H](C)Cn1ccc(S(=O)(=O)NC(=O)Nc2c3c(cc(C)c2-c2ccn4nccc4c2)CCC3)n1 [Example 27, (R)-1-(2-methoxypropyl)-N-((6-methyl-5-(pyrazolo[1,5-a]pyridin-5-yl)-2,3-dihydro-1H-inden-4-yl)carbamoyl)-1H-pyrazole-3-sulfonamide]
